Numbers after ± are expanded uncertainties.
Columns and labels:
[1] = xn = mol fraction of the nth substance listed; conditions: 100 kPa, Liquid; for speed of sound: Frequency=3 MHz, Sing-around technique in a fixed-path interferometer; for mass density: Vibrating tube method
[2] = refractive index (Na D-line) (dimensionless); xn = mol fraction of the nth substance listed; conditions: 100 kPa, Liquid, Standard Abbe refractometry

CCCCCCC(=O)O [heptanoic acid] + CCC(=O)O
Conditions	mass density, [1] [kg/m3]	refractive index, [2]	speed of sound, [1] [m/s]
293.15 K, x1 = 0.0539	985.8 ± 0.3	1.39 ± 0.0005	1176 ± 2
293.15 K, x1 = 0.1023	979.3 ± 0.3	1.3929 ± 0.0005	1185 ± 2
293.15 K, x1 = 0.2037	967.5 ± 0.3	1.3982 ± 0.0005	1202 ± 2
293.15 K, x1 = 0.3021	957.8 ± 0.3	1.4026 ± 0.0005	1217 ± 2
293.15 K, x1 = 0.4007	949.6 ± 0.3	1.4066 ± 0.0005	1231 ± 2
293.15 K, x1 = 0.5015	942.3 ± 0.3	1.4102 ± 0.0005	1244 ± 2
293.15 K, x1 = 0.6051	935.9 ± 0.3	1.4135 ± 0.0005	1257 ± 2
293.15 K, x1 = 0.7009	930.7 ± 0.3	1.4162 ± 0.0005	1267 ± 2
293.15 K, x1 = 0.8016	925.8 ± 0.3	1.4188 ± 0.0005	1277 ± 2
293.15 K, x1 = 0.9002	921.5 ± 0.3	1.4212 ± 0.0005	1287 ± 2
293.15 K, x1 = 0.95	919.5 ± 0.3	1.4223 ± 0.0005	1291 ± 2
293.15 K, x1 = 1	917.7 ± 0.3	1.4234 ± 0.0005	1295 ± 2
298.15 K, x1 = 0.0539	980.5 ± 0.3	1.388 ± 0.0005	1158 ± 2
298.15 K, x1 = 0.1023	974.2 ± 0.3	1.3909 ± 0.0005	1166 ± 2
298.15 K, x1 = 0.2037	962.5 ± 0.3	1.3961 ± 0.0005	1184 ± 2
298.15 K, x1 = 0.3021	953 ± 0.3	1.4006 ± 0.0005	1199 ± 2
298.15 K, x1 = 0.4007	944.9 ± 0.3	1.4045 ± 0.0005	1213 ± 2
298.15 K, x1 = 0.5015	937.7 ± 0.3	1.4081 ± 0.0005	1226 ± 2
298.15 K, x1 = 0.6051	931.1 ± 0.3	1.4114 ± 0.0005	1239 ± 2
298.15 K, x1 = 0.7009	926.3 ± 0.3	1.4142 ± 0.0005	1249 ± 2
298.15 K, x1 = 0.8016	921.4 ± 0.3	1.4169 ± 0.0005	1260 ± 2
298.15 K, x1 = 0.9002	917.2 ± 0.3	1.4192 ± 0.0005	1269 ± 2
298.15 K, x1 = 0.95	915.3 ± 0.3	1.4203 ± 0.0005	1273 ± 2
298.15 K, x1 = 1	913.5 ± 0.3	1.4214 ± 0.0005	1278 ± 2
303.15 K, x1 = 0.0539	975.2 ± 0.3	1.3859 ± 0.0005	1139 ± 2
303.15 K, x1 = 0.1023	969 ± 0.3	1.3888 ± 0.0005	1148 ± 2
303.15 K, x1 = 0.2037	957.5 ± 0.3	1.394 ± 0.0005	1165 ± 2
303.15 K, x1 = 0.3021	948.1 ± 0.3	1.3985 ± 0.0005	1180 ± 2
303.15 K, x1 = 0.4007	940.2 ± 0.3	1.4024 ± 0.0005	1195 ± 2
303.15 K, x1 = 0.5015	933.2 ± 0.3	1.406 ± 0.0005	1208 ± 2
303.15 K, x1 = 0.6051	926.9 ± 0.3	1.4094 ± 0.0005	1220 ± 2
303.15 K, x1 = 0.7009	921.9 ± 0.3	1.4121 ± 0.0005	1231 ± 2
303.15 K, x1 = 0.8016	917.1 ± 0.3	1.4148 ± 0.0005	1242 ± 2
303.15 K, x1 = 0.9002	913 ± 0.3	1.4171 ± 0.0005	1251 ± 2
303.15 K, x1 = 0.95	911.1 ± 0.3	1.4183 ± 0.0005	1256 ± 2
303.15 K, x1 = 1	909.3 ± 0.3	1.4194 ± 0.0005	1260 ± 2
308.15 K, x1 = 0.0539	970 ± 0.3	1.3838 ± 0.0005	1120 ± 2
308.15 K, x1 = 0.1023	963.8 ± 0.3	1.3866 ± 0.0005	1129 ± 2
308.15 K, x1 = 0.2037	952.5 ± 0.3	1.3919 ± 0.0005	1146 ± 2
308.15 K, x1 = 0.3021	943.3 ± 0.3	1.3963 ± 0.0005	1162 ± 2
308.15 K, x1 = 0.4007	935.5 ± 0.3	1.4003 ± 0.0005	1176 ± 2
308.15 K, x1 = 0.5015	928.6 ± 0.3	1.4039 ± 0.0005	1190 ± 2
308.15 K, x1 = 0.6051	922.4 ± 0.3	1.4073 ± 0.0005	1202 ± 2
308.15 K, x1 = 0.7009	917.5 ± 0.3	1.4101 ± 0.0005	1213 ± 2
308.15 K, x1 = 0.8016	912.8 ± 0.3	1.4127 ± 0.0005	1224 ± 2
308.15 K, x1 = 0.9002	908.8 ± 0.3	1.4151 ± 0.0005	1233 ± 2
308.15 K, x1 = 0.95	906.9 ± 0.3	1.4162 ± 0.0005	1238 ± 2
308.15 K, x1 = 1	905.1 ± 0.3	1.4173 ± 0.0005	1242 ± 2
313.15 K, x1 = 0.0539	964.7 ± 0.3	1.3816 ± 0.0005	1101 ± 2
313.15 K, x1 = 0.1023	958.6 ± 0.3	1.3845 ± 0.0005	1110 ± 2
313.15 K, x1 = 0.2037	947.5 ± 0.3	1.3897 ± 0.0005	1128 ± 2
313.15 K, x1 = 0.3021	938.4 ± 0.3	1.3942 ± 0.0005	1144 ± 2
313.15 K, x1 = 0.4007	930.8 ± 0.3	1.3982 ± 0.0005	1158 ± 2
313.15 K, x1 = 0.5015	924 ± 0.3	1.4018 ± 0.0005	1172 ± 2
313.15 K, x1 = 0.6051	918 ± 0.3	1.4052 ± 0.0005	1185 ± 2
313.15 K, x1 = 0.7009	913.1 ± 0.3	1.408 ± 0.0005	1196 ± 2
313.15 K, x1 = 0.8016	908.5 ± 0.3	1.4107 ± 0.0005	1206 ± 2
313.15 K, x1 = 0.9002	904.5 ± 0.3	1.4131 ± 0.0005	1216 ± 2
313.15 K, x1 = 0.95	902.7 ± 0.3	1.4142 ± 0.0005	1220 ± 2
313.15 K, x1 = 1	900.9 ± 0.3	1.4153 ± 0.0005	1225 ± 2
